From patent US10076519B2 (CYTOKINETICS, INC., priority 2010, dated 2018)

Each molecule was assayed on rabbit skeletal myofibrils (fast skeletal myofibrils) (assay: Activation of fast skeletal myofibrils (PUMA assay, PK/LDH-coupled ATPase at pCa25)). Details: AC1.4 determined according to the procedure of Example 39; reported as class symbols.
Assay type: biochemical
Experimental: Preparation of Fast Skeletal Myofibrils.
Rabbit skeletal myofibrils were prepared based upon the method of Herrmann et al. (Biochem. 32(28):7255-7263(1993). Myofibrils were prepared from rabbit psoas muscle purchased from Pel-Freez Biologicals (Arkansas) within 2 days of ordering, stored on ice. Minced muscle was homogenized in 10 volumes of ice-cold “standard” buffer (50 mM Tris, pH 7.4, 0.1M potassium acetate, 5 mM KCl, 2 mM DTT, 0.2 mM PMSF, 10 μM leupeptin, 5 μM pepstatin, and 0.5 mM sodium azide) containing 5 mM EDTA and 0.5% Triton X-100 using an Omni-Macro homogenizer. Myofibrils were recovered by low speed centrifugation (3000 rpm for 10 minutes) and washed 2 times in the Triton X-100 containing buffer to ensure removal of cellular membrane. Following the Triton washes, myofibrils were washed 3 times in “standard” buffer containing 2 mM magnesium acetate. A final wash in assay buffer (12 mM PIPES, pH 6.8, 60 mM KCl, 1 mM DTT) was performed and brought to 10% sucrose for flash freezing in liquid nitrogen and storage at −80° C.
Activation of Fast Skeletal Myofibrils.
Fast fiber activators were identified by measuring the enzymatic activity of muscle myofibril preparations using the proprietary PUMA™ (see, e.g., U.S. Pat. Nos. 6,410,254, 6,743,599, 7,202,051, and 7,378,254) assay system. Myofibril preparations consisted of rabbit skeletal muscle (approximately 90% fast fibers) that had been mechanically homogenized and washed with a detergent (triton X-100) to remove cellular membranes. This preparation retained all of the sarcomeric components in a native conformation and the enzymatic activity was still regulated by calcium. Compounds were tested using a myofibril suspension and a level of calcium sufficient to increase enzymatic activity of the myofibrils to 25% of their maximal rate (termed pCa25). Enzymatic activity was tracked via a pyruvate kinase and lactate dehydrogenase-coupled enzyme system. This assay regenerates myosin-produced ADP into ATP by oxidizing NADH, producing an absorbance change at 340 nm. The buffering system was 12 mM Pipes, 2 mM MgCl2, 1 mM DTT at pH 6.8 (PM12 buffer).
Using procedures similar to those described herein, utilizing reagents and intermediates commercially available (e.g., Sigma-Aldrich, St. Louis, Mo.) or readily synthesized by one of skill in the art, the compounds in Table 2 were synthesized, characterized and tested. AC1.4 values were determined according to the procedure described in Example 39, and the reported median AC1.4 values are as follows: A=<1 uM; B=1-10 uM; C=10-20 uM; D=>20 uM.

| SMILES | Mean AC1.4 |
| --- | --- |
| N#Cc1ccnc(C2(CNc3ccc(-c4ccc5[nH]ncc5c4)nn3)CCC2)c1 | A (A=<1 uM) |
| NC(=O)c1ccnc(C2(CNc3ccc(-c4ccc5[nH]ncc5c4)nn3)CCC2)c1 | C (C=10-20 uM) |
| NC(=O)c1ccnc(C2(CNc3ccc(-c4cc(C(N)=O)ccc4F)nn3)CCC2)c1 | D (D=>20 uM) |
| NC(=O)c1cccc(-c2ccc(NCC3(c4cc(C(N)=O)ccn4)CCC3)nn2)c1 | D (D=>20 uM) |
| NCC(=O)Nc1n[nH]c2ccc(-c3ccc(NCC4(c5ncccc5F)CCC4)nn3)cc12 | B (B=1-10 uM) |
| NC(=O)c1cccc(-c2ccc(NCC3(c4ccccn4)CCC3)nn2)c1 | A (A=<1 uM) |
| Cc1ccc(C(N)=O)cc1-c1ccc(NCC2(c3ncccc3F)CCC2)nn1 | B (B=1-10 uM) |
| N#Cc1ccnc(C2(CNc3ccc(-c4cccc(C(N)=O)c4)nn3)CCC2)c1 | B (B=1-10 uM) |
| N#Cc1ccnc(C2(CNc3ccc(-c4cc(C(N)=O)ccc4F)nn3)CCC2)c1 | B (B=1-10 uM) |
| N#Cc1cccc(C2(CNc3ccc(-c4cccc(C(N)=O)c4)nn3)CCC2)n1 | B (B=1-10 uM) |
| NC(=O)c1cccc(-c2ccc(NCC3(c4cnccn4)CCC3)nn2)c1 | D (D=>20 uM) |
| NC(=O)n1nc(N)c2cc(-c3ccc(NCC4(c5ncccc5F)CCC4)nn3)ccc21 | B (B=1-10 uM) |
| O=C1Cc2c(cccc2-c2ccc(NCC3(c4ncccc4F)CCC3)nn2)N1 | B (B=1-10 uM) |
| NC(=O)c1cc(C(N)=O)cc(-c2ccc(NCC3(c4ncccc4F)CCC3)nn2)c1 | B (B=1-10 uM) |
| O=C(O)c1cc(C(=O)O)cc(-c2ccc(NCC3(c4ncccc4F)CCC3)nn2)c1 | D (D=>20 uM) |
| NC(=O)c1cccc(-c2ccc(NCC3(c4cccc(C(N)=O)n4)CCC3)nn2)c1 | D (D=>20 uM) |
| CC(=O)Nc1nc(-c2ccc(NCC3(c4ncccc4F)CCC3)nn2)c[nH]1 | D (D=>20 uM) |
| OCc1ccccc1-c1ccc(NCC2(c3ncccc3F)CCC2)nn1 | B (B=1-10 uM) |
| Fc1cccnc1C1(CNc2ccc(-c3ccccc3OC(F)(F)F)nn2)CCC1 | A (A=<1 uM) |
| N=C(N)Nc1cccc(-c2ccc(NCC3(c4ncccc4F)CCC3)nn2)c1 | B (B=1-10 uM) |
| N=C(N)Nc1ccc(-c2ccc(NCC3(c4ncccc4F)CCC3)nn2)cc1 | B (B=1-10 uM) |
| N=C(N)Nc1n[nH]c2ccc(-c3ccc(NCC4(c5ncccc5F)CCC4)nn3)cc12 | B (B=1-10 uM) |

The next lines start with the values.

| Mean AC1.4 | SMILES |
| --- | --- |
| B (B=1-10 uM) | O=C(O)c1cc(-c2ccc(NCC3(c4ncccc4F)CCC3)nn2)ccc1F |
| D (D=>20 uM) | CC(C)(CNc1ccc(-c2cccc(C#N)c2)nn1)OCc1ccccc1 |
| D (D=>20 uM) | CC(C)(CNc1ccc(-c2cccc(C(N)=O)c2)nn1)OCc1ccccc1 |
| C (C=10-20 uM) | CC(Nc1ccc(-c2cccc(C(N)=O)c2)nn1)c1ccc(F)cc1 (stereo not drawn) |
| D (D=>20 uM) | N=C(N)c1cccc(-c2ccc(NCC3(c4ncccc4F)CCC3)nn2)c1 |
| A (A=<1 uM) | NC(=O)c1cccc(-c2ccc(NCC3(c4ccc(F)cc4)CCC3)nn2)c1 |
| D (D=>20 uM) | CC(Nc1ccc(-c2cccc(C(N)=O)c2)nn1)c1ccccc1 (stereo not drawn) |
| D (D=>20 uM) | COc1ccc(C2(CNc3ccc(-c4cc(C(N)=O)ccc4F)nn3)CCC2)nc1 |
| B (B=1-10 uM) | CC(C)(CNc1ccc(-c2ccc(=O)[nH]c2)nn1)c1ccc(F)cc1 |
| D (D=>20 uM) | CC(C)(CNc1ccc(-c2cnc(=O)[nH]c2)nn1)c1ccc(F)cc1 |
| A (A=<1 uM) | CC(C)(CNc1ccc(-c2ccc3[nH]c(=O)[nH]c3c2)nn1)c1ccc(F)cc1 |
| D (D=>20 uM) | CC1(C)C(=O)Nc2cc(-c3ccc(NCC4(c5ncccc5F)CCC4)nn3)ccc21 |
| B (B=1-10 uM) | N#Cc1ccc(C2(CNc3ccc(-c4ccc5[nH]ncc5c4)nn3)CCC2)nc1 |
| B (B=1-10 uM) | NC(=O)c1cccc(C2(CNc3ccc(-c4ccc5[nH]ncc5c4)nn3)CCC2)n1 |
| B (B=1-10 uM) | N#Cc1cccc(C2(CNc3ccc(-c4ccc5[nH]ncc5c4)nn3)CCC2)n1 |
| B (B=1-10 uM) | CC(=O)Nc1cccc(-c2ccc(NCC3(c4ncccc4F)CCC3)nn2)c1 |
| B (B=1-10 uM) | CC(=O)Nc1n[nH]c2ccc(-c3ccc(NCC4(c5ncccc5F)CCC4)nn3)cc12 |
| C (C=10-20 uM) | COC(=O)NCc1ccc(-c2ccc(NCC(C)(C)c3ccc(F)cc3)nn2)cn1 |
| B (B=1-10 uM) | CNC(=O)c1cc(-c2ccc(NCC3(c4ncccc4F)CCC3)nn2)ccc1F |
| A (A=<1 uM) | CS(=O)(=O)Nc1n[nH]c2ccc(-c3ccc(NCC4(c5ncccc5F)CCC4)nn3)cc12 |
| A (A=<1 uM) | NC(=O)Nc1cccc(-c2ccc(NCC3(c4ncccc4F)CCC3)nn2)c1 |

Same assay, conditions: median AC1.4 class, procedure of Example 39

| SMILES | Mean AC1.4 |
| --- | --- |
| NC(=O)c1ccc(F)c(-c2ccc(NC3(c4ncccc4Br)CCC3)nn2)c1 | A (A=<1 uM) |
| NC(=O)c1ccc(C2(Nc3ccc(-c4cccc(C(N)=O)c4)nn3)CCC2)cc1 | D (D=>20 uM) |
| N#Cc1ccnc(C2(Nc3ccc(-c4cc(C(N)=O)ccc4F)nn3)CCC2)c1 | D (D=>20 uM) |
| N#Cc1ccc(C2(Nc3ccc(-c4cc(C(N)=O)ccc4F)nn3)CCC2)nc1 | D (D=>20 uM) |
| NC(=O)c1cccc(-c2ccc(NC3(c4cccc(OC(F)F)n4)CCC3)nn2)c1 | A (A=<1 uM) |
| NC(=O)c1ccc(F)c(-c2ccc(NC3(c4cccc(OC(F)F)n4)CCC3)nn2)c1 | A (A=<1 uM) |
| N#Cc1cccc(C2(Nc3ccc(-c4cc(C(N)=O)ccc4F)nn3)CCC2)n1 | B (B=1-10 uM) |
| COc1cccc(C2(Nc3ccc(-c4cccc(C(N)=O)c4)nn3)CCC2)n1 | B (B=1-10 uM) |
| NC(=O)c1ccc(Cl)c(-c2ccc(NC3(c4ncccc4F)CCC3)nn2)c1 | B (B=1-10 uM) |
| NC(=O)c1ccc(F)c(-c2ccc(NC3(c4ncccc4O)CCC3)nn2)c1 | D (D=>20 uM) |
| COc1cccnc1C1(Nc2ccc(-c3cc(C(N)=O)ccc3F)nn2)CCC1 | C (C=10-20 uM) |
| COc1cccc(C2(Nc3ccc(-c4cc(C(N)=O)ccc4F)nn3)CCC2)n1 | A (A=<1 uM) |
| CS(=O)(=O)Nc1cccc(-c2ccc(NC3(c4ncccc4F)CCC3)nn2)c1 | B (B=1-10 uM) |
| CS(=O)(=O)Nc1cccc(-c2ccc(NC3(c4cccc(OC(F)F)n4)CCC3)nn2)c1 | A (A=<1 uM) |
| COc1cccc(C2(Nc3ccc(-c4cccc(NS(C)(=O)=O)c4)nn3)CCC2)n1 | B (B=1-10 uM) |
| NC(=O)Nc1ccc(-c2ccc(NC3(c4ncccc4F)CCC3)nn2)c(F)c1 | B (B=1-10 uM) |
| NC(=O)Nc1ccc(-c2ccc(NC3(c4ncccc4F)CCC3)nn2)cc1 | B (B=1-10 uM) |
| NS(=O)(=O)Nc1ccc(-c2ccc(NC3(c4ncccc4F)CCC3)nn2)c(F)c1 | B (B=1-10 uM) |
| NS(=O)(=O)Nc1ccc(F)c(-c2ccc(NC3(c4ncccc4F)CCC3)nn2)c1 | B (B=1-10 uM) |

Second part, the molecule after the results:

| Mean AC1.4 | SMILES |
| --- | --- |
| D (D=>20 uM) | CC(C)(Nc1ccc(-c2cc(C(N)=O)ccc2F)nn1)c1cccc(=O)[nH]1 |
| B (B=1-10 uM) | O=C(O)c1ccc(F)c(-c2ccc(NC3(c4ccc(F)cc4)CCC3)nn2)c1 |
| B (B=1-10 uM) | CNC(=O)c1cc(-c2ccc(NC3(c4ccc(F)cc4)CCC3)nn2)ccn1 |
| B (B=1-10 uM) | CC(C)(O)CNC(=O)c1ccc(F)c(-c2ccc(NC3(c4ccc(F)cc4)CCC3)nn2)c1 |
